Consider two molecules from patent publication US20190314352A1, “ADMINISTRATION OF DIPEPTIDYL PEPTIDASE INHIBITORS” (Takeda Pharmaceutical Company Limited, priority 2005, published 2019).

The structures appear in SMILES notation.

The test system of test [1] is Male db/db (BKS.Cg-+Lepr^db/+Lepr^db) mice. In words: Co-administration with pioglitazone: glycosylated hemoglobin levels in mice. The settings on record: 21 days in powder chow: 0.03% (w/w) benzoate salt of Compound I and/or 0.0075% (w/w) pioglitazone hydrochloride, n=8, mean ± SD. Type of test: in vivo. As for the experimental part: Male db/db (BKS.Cg-+Lepr^db/+Lepr^db) mice (6 weeks of age, CLEA Japan (Tokyo, Japan)) were divided into 4 groups (n=8 in each group) comprising Group A to Group D. Group A had free access to CE-2 powder chow (CLEA Japan) for 21 days. […] Group C had free access to CE-2 powder chow (CLEA Japan) containing 0.0075% (w/w) of pioglitazone hydrochloride for 21 days. The dose of pioglitazone in Group C was calculated to be 15.4±1.5 (mean±SD) mg/kg body weight/day. […] During 21 days of administration of the powder chow, there were not significant differences in the administration amount of the powder chow in the above 4 groups. After 21 days of administration of the powder chow, blood samples were taken from the orbital veins of the mice by capillary pipette under feeding condition, and Glycosylated hemoglobin levels were measured by HPLC-based method using TOSOH automated GHb Analyzer HLC-723 G7 (TOSOH, Japan).
The values in the table means average (n=8)±standard deviation.

Test [2] has as its system newly diagnosed type II diabetes patients. In words: Fasting fructosamine, 14-day repeat-dose placebo-controlled study. Type of test: in vivo, human. The settings on record: for Fasting Fructosamine, Difference in Change from Baseline from Placebo, LS Mean: Day 15, ANCOVA.
Test [3] has the same test system. In words: Glycosylated hemoglobin (HbA1c), 14-day repeat-dose placebo-controlled study. Type of test: in vivo, human. The settings on record: for HbA1c, Difference in Change from Baseline from Placebo, LS Mean: Day 15, ANCOVA; for HbA1c, Day 15 Change from Baseline, Mean: baseline Day −7. How it is done: (§1) Blood samples were collected on Days 6, 16, 17, and 21 for analysis of efficacy based on change in mean 4-hour postprandial plasma glucose (Cavg) from Day −1 to Day 14. Secondary efficacy endpoints included mean 4-hour prandial fructosamine, and glycosylated hemoglobin (HbA1c). Data was collected at each study visit. Inhibition of DPPIV activity was also determined using an assay validated for human plasma samples.

Test [4] has the same test system. Description: 4-hour postprandial plasma glucose (Cavg) following breakfast, 14-day repeat-dose placebo-controlled study. Type of test: in vivo, human. The settings on record: for mean reduction from baseline in Cavg B / mean reduction in Cavg B calculated as a percent change: fourteen days of treatment; for 4-hour postprandial plasma glucose following breakfast, Day 14 Actual, Mean: 14 days; for 4-hour postprandial plasma glucose, Difference in Change from Baseline from Placebo, LS Mean: Day 14, ANCOVA; for 4-hour postprandial plasma glucose following breakfast, Day 14 Change from Baseline, Mean: baseline Day −1. The source says:
Data was collected at each study visit.
The primary efficacy analysis was based on change in mean 4-hour prandial glucose concentrations (Cavg) from Day −1 to Day 14. Table A summarizes the primary efficacy endpoint measured following breakfast.

Test [5] shares this test system. In words: Glycosylated hemoglobin (HbA1c), 14-day repeat-dose placebo-controlled study. The settings on record: one time per day at the specified dosage levels, extended treatment; expected. Type of test: in vivo, human.
Test [6] shares this test system. Description: Fasting fructosamine, 14-day repeat-dose placebo-controlled study. Type of test: in vivo, human. The settings on record: for Fasting Fructosamine, Day 15 Actual, Mean: type II diabetes patients; for Fasting Fructosamine, Difference in Change from Baseline from Placebo, LS Mean: Day 15, ANCOVA; for Fasting Fructosamine, Day 15 Change from Baseline, Mean: baseline Day −7. How it is done:
as §1

On to `CCc1ccc(CCOc2ccc(CC3SC(=O)NC3=O)cc2)nc1` (stereo not drawn) [Pioglitazone, 5-{[4-(2-(5-ethyl-2-pyridyl)ethoxy)phenyl]-methyl}-thiazolidine-2,4-dione, reference compound], for which the “Glycosylated Hemoglobin (%)” value in test [1] turned out to be 5.0 ± 0.7%.
As for `Cn1c(=O)cc(N2CCC[C@@H](N)C2)n(Cc2ccccc2C#N)c1=O` [Compound I, 2-[[6-[(3R)-3-amino-1-piperidinyl]-3,4-dihydro-3-methyl-2,4-dioxo-1(2H)-pyrimidinyl]methyl]-benzonitrile], the “Fasting Fructosamine, Day 15 Change from Baseline, Mean” value is 6.3 µmol/L in test [2] (25 mg/day, baseline Day −7); -25.6 µmol/L in test [6] (100 mg/day); -19.9 µmol/L in test [6] (400 mg/day); -12.9 µmol/L in test [6] (All Active). The “Fasting Fructosamine, Difference in Change from Baseline from Placebo, LS Mean” value in test [2] (100 mg/day) is -42.9 µmol/L; in test [2] (400 mg/day) it was -33.2 µmol/L; in test [6] (25 mg/day), -9.6 µmol/L; in test [6] (All Active) it was -28.6 µmol/L. Also, the “Fasting Fructosamine, Day 15 Actual, Mean” value in test [2] (All Active, 14 days) is 295.3 µmol/L; in test [6] (25 mg/day for 14 days), 310.7 µmol/L; in test [6] (100 mg/day for 14 days), 263.9 µmol/L; in test [6] (400 mg/day for 14 days), 312.6 µmol/L. Further, in test [1], the “Glycosylated Hemoglobin (%)” value is reported as 5.8 ± 0.5%. In addition, the “Glycosylated Hemoglobin (HbA1c), Day 15 Actual, Mean” value is reported as 7.76% in test [3] (25 mg/day for 14 days, type II diabetes patients); 7.25% in test [3] (100 mg/day for 14 days, type II diabetes patients); 7.82% in test [3] (400 mg/day for 14 days, type II diabetes patients); 7.60% in test [3] (All Active, 14 days). In addition, the “HbA1c, Difference in Change from Baseline from Placebo, LS Mean” value was −0.27% in test [3] (25 mg/day), −0.45% in test [3] (100 mg/day), −0.32% in test [3] (400 mg/day) and −0.35% in test [3] (All Active). Moreover, the “HbA1c, Day 15 Change from Baseline, Mean” value in test [3] (25 mg/day) is −0.22%; in test [3] (100 mg/day), −0.40%; in test [3] (400 mg/day) it was −0.28%; in test [3] (All Active), −0.30%. In addition, the “mean reduction from baseline in Cavg B” value in test [4] (25 mg group) was 33 mg/dL; in test [4] (100 mg group), 37 mg/dL; in test [4] (400 mg group), 66 mg/dL. Also, the “mean reduction in Cavg B calculated as a percent change” value in test [4] (25 mg group) was 15%; in test [4] (100 mg group) it was 17%; in test [4] (400 mg group), 24%. For the same molecule, the “4-hour postprandial plasma glucose following breakfast, Day 14 Actual, Mean” value is recorded as 203.2 mg/dL in test [4] (25 mg/day, type II diabetes patients); 173.5 mg/dL in test [4] (100 mg/day, type II diabetes patients); 198.6 mg/dL in test [4] (400 mg/day, type II diabetes patients); 191.8 mg/dL in test [4] (All Active (25, 100, 400 mg/day combined)). Besides, the “4-hour postprandial plasma glucose, Difference in Change from Baseline from Placebo, LS Mean” value in test [4] (25 mg/day) is -39.9 mg/dL; in test [4] (100 mg/day) it was -48.6 mg/dL; in test [4] (400 mg/day), -68.3 mg/dL; in test [4] (All Active), -52.3 mg/dL. The “4-hour postprandial plasma glucose following breakfast, Day 14 Change from Baseline, Mean” value was -32.5 mg/dL in test [4] (25 mg/day), -37.2 mg/dL in test [4] (100 mg/day), -65.6 mg/dL in test [4] (400 mg/day) and -44.3 mg/dL in test [4] (All Active). In addition, the “decrease of hemoglobin A1c level compared to placebo control” value in test [5] is on record as “greater than 0.5%”.
